From US11970435B2, “Taste-modified creatine salts, compounds, compositions and uses thereof” (Augusta University Research Institute, Inc., priority 2017, dated 2024)
Values joined by “and” are separate entries in the source; they are usually repeats but may differ in a detail not shown here. Equal entries are not always repeated. Structures can show the parent of a compound that is named as a salt.

Key:
[1] = Stability study: decomposition of creatine salts to creatinine in water, LC-MS/MS; format: physicochemical; conditions: for Creatinine, % / Salt, %: distilled water, 20° C.; for decomposition: at first, time intervals of 8 hours, water; for Formation of creatinine: deionized water, room temperature, period of 333 hours
Experimental: Mobile phase was 50% water and 50% acetonitrile with 0.1% formic acid in each. Column was a 2 mm×15 cm C18 column with 3 um particles. Flow rate 0.2 mL/min.
Samples were dissolved in distilled water and kept at 20° C. Mass spectrometry used a Waters Premier XE triple quadrupole mass spectrometer. Liquid chromatography used a Waters Acquity UPLC system.
Experiment was double checked with two simultaneous injections of each sample in various time intervals.

[2] = isolated product

Compound: CN(CC(=O)O)C(=N)N.Cl [Salt 4, creatine hydrochloride]
- Creatinine, % ([1]; 0 Hrs, hydrochloride): 1.8% and 1.7%
- Salt, % ([1]; 0 Hrs, hydrochloride): 98.2% and 98.3%
- Creatinine, % ([1]; 8 Hrs): 2.5%
- Salt, % ([1]; 8 Hrs): 97.5%
- Creatinine, % ([1]; 16 Hrs): 2.4%
- Salt, % ([1]; 16 Hrs): 97.6%
- Creatinine, % ([1]; 24 Hrs): 2.5%
- Salt, % ([1]; 24 Hrs): 97.5%
- Creatinine, % ([1]; 32 Hrs, hydrochloride): 2.4% and 2.5%
- Salt, % ([1]; 32 Hrs, hydrochloride): 97.6% and 97.5%
- Creatinine, % ([1]; 40 Hrs, hydrochloride): 2.4% and 2.5%
- Salt, % ([1]; 40 Hrs, hydrochloride): 97.6% and 97.5%
- Creatinine, % ([1]; 48 Hrs): 2.5%
- Salt, % ([1]; 48 Hrs): 97.5%
- Creatinine, % ([1]; 56 Hrs, hydrochloride): 2.5% and 2.4%
- Salt, % ([1]; 56 Hrs, hydrochloride): 97.5% and 97.6%
- Creatinine, % ([1]; 64 Hrs): 2.5%
- Salt, % ([1]; 64 Hrs): 97.5%
- Creatinine, % ([1]; 72 Hrs, hydrochloride): 2.5% and 2.6%
- Salt, % ([1]; 72 Hrs, hydrochloride): 97.5% and 97.4%
- Creatinine, % ([1]; 138 Hrs, hydrochloride): 3.0% and 2.8%
- Salt, % ([1]; 138 Hrs, hydrochloride): 97.0% and 97.2%
- Creatinine, % ([1]; 166 Hrs): 3.0%
- Salt, % ([1]; 166 Hrs): 97.0%
- Creatinine, % ([1]; 190 Hrs): 3.0%
- Salt, % ([1]; 190 Hrs): 97.0%
- Creatinine, % ([1]; 214 Hrs, hydrochloride): 3.1% and 3.3%
- Salt, % ([1]; 214 Hrs, hydrochloride): 96.9% and 96.7%
- Creatinine, % ([1]; 240 Hrs, hydrochloride): 3.0% and 3.3%
- Salt, % ([1]; 240 Hrs, hydrochloride): 97.0% and 96.7%
- Creatinine, % ([1]; 287 Hrs, hydrochloride): 3.2% and 3.5%
- Salt, % ([1]; 287 Hrs, hydrochloride): 96.8% and 96.5%
- Creatinine, % ([1]; 310 Hrs, hydrochloride): 3.3% and 3.6%
- Salt, % ([1]; 310 Hrs, hydrochloride): 96.7% and 96.4%
- Creatinine, % ([1]; 333 Hrs, hydrochloride): 3.6% and 3.5%
- Salt, % ([1]; 333 Hrs, hydrochloride): 96.4% and 96.5%
- decomposition [1]: < 2.5%
- Formation of creatinine [1]: ≤ 3.6%

Compound: C[C@H](CCC(=O)NCCS(=O)(=O)O)[C@H]1CC[C@H]2[C@@H]3[C@H](O)C[C@@H]4C[C@H](O)CC[C@]4(C)[C@H]3C[C@H](O)[C@]12C [Salt 26, Amino((2-ethoxy-2-oxoethyl)(methyl)amino)methaniminium 2-((R)-4-((3R,5S, 7R, 8R,9S,10S,12S,13R,14S,17R)-3,7,12-trihydroxy-10,13-dimethylhexadecahydro-1H-cyclopenta[a]phenanthren-17-yl)pentanamido)ethane-1-sulfonate]
- solubility in organic solvents and water [2]: readily soluble

Compound: Amino((carboxymethyl)(methyl)amino)methaniminium 6-methyl-4-oxo-4H-1,2,3-oxathiazin-3-ide 2,2-dioxide [Salt 21a]
- Creatinine, % ([1]; 0 Hrs): 0.4%
- Salt, % ([1]; 0 Hrs): 99.6%
- Creatinine, % ([1]; 8 Hrs): 0.4%
- Salt, % ([1]; 8 Hrs): 99.6%
- Creatinine, % ([1]; 16 Hrs): 0.4%
- Salt, % ([1]; 16 Hrs): 99.6%
- Creatinine, % ([1]; 24 Hrs): 0.5%
- Salt, % ([1]; 24 Hrs): 99.5%
- Creatinine, % ([1]; 32 Hrs): 0.5% and 0.4%
- Salt, % ([1]; 32 Hrs): 99.5% and 99.6%
- Creatinine, % ([1]; 40 Hrs): 0.5%
- Salt, % ([1]; 40 Hrs): 99.5%
- Creatinine, % ([1]; 48 Hrs): 0.5%
- Salt, % ([1]; 48 Hrs): 99.5%
- Creatinine, % ([1]; 56 Hrs): 0.5%
- Salt, % ([1]; 56 Hrs): 99.5%
- Creatinine, % ([1]; 64 Hrs): 0.5%
- Salt, % ([1]; 64 Hrs): 99.5%
- Creatinine, % ([1]; 72 Hrs): 0.5%
- Salt, % ([1]; 72 Hrs): 99.5%
- Creatinine, % ([1]; 138 Hrs): 0.6%
- Salt, % ([1]; 138 Hrs): 99.4%
- Creatinine, % ([1]; 166 Hrs): 0.7%
- Salt, % ([1]; 166 Hrs): 99.3%
- Creatinine, % ([1]; 190 Hrs): 0.7%
- Salt, % ([1]; 190 Hrs): 99.3%
- Creatinine, % ([1]; 214 Hrs): 0.8% and 0.7%
- Salt, % ([1]; 214 Hrs): 99.2% and 99.3%
- Creatinine, % ([1]; 240 Hrs): 0.8%
- Salt, % ([1]; 240 Hrs): 99.2%
- Creatinine, % ([1]; 287 Hrs): 0.9%
- Salt, % ([1]; 287 Hrs): 99.1%
- Creatinine, % ([1]; 310 Hrs): 0.9%
- Salt, % ([1]; 310 Hrs): 99.1%
- Creatinine, % ([1]; 333 Hrs): 1.0%
- Salt, % ([1]; 333 Hrs): 99.0%
- decomposition [1]: under 0.5%
- Formation of creatinine [1]: ≤ 1%
